Experiments:
female rats = experiment: Rat female fertility and embryofetal development study; type: in vivo
Protocol: In female rats the No Adverse Effect Dose Level for fetal minor abnormalities and variants was 1000 mg/kg/day.

[1] = Pharmacokinetics and metabolism in dogs; type: in vivo; settings: dog
Protocol: (§1) At low doses, the estimated Clp of The NK3RA was moderate in rat (8.3 ml/min/kg) and low in the dog (1.2 ml/min/kg). Bioavailability (F) was ˜100% in both species indicating extensive absorption in these species. The volume of distribution (Vz) was moderate (1.6 L·kg in rat and 0.81 L/kg in dog) and consistent with the physico-chemical properties of the compound. […] The NK3RA exposure decreased after multiple dosing in rats, indicating either changes in absorption or induction of The NK3RA metabolism, or both, after multiple dosing. […] T1/2 values ranged from 5.6 hours to 14.3 hours at the end of dosing for dogs dosed at 1000 mg/kg/day (2180 μmol/kg/day). There were no consistent sex differences observed in the exposure to NK3RA in these 2 species.
(§2) Following oral administration of The NK3RA in the rat, a pharmacologically active ketone metabolite appeared rapidly in plasma but slowly reached maximum concentration levels in all animals. […] T1/2 values ranged from 8.51 hours to 13.8 hours on Day 27 and Day 28 for dogs dosed with 1000 mg/kg/day (2180 μmol/kg/day) of the NK3RA. There were no consistent sex differences observed in the exposure to the metabolite in these 2 species.

[2] = Pharmacokinetics and metabolism in rats; type: in vivo, rat
Protocol: as §1, §2

hERG channel = hERG channel (Homo sapiens, UniProt Q12809); experiment: hERG channel in vitro (tail current); type: cell-based
serum testosterone = experiment: Phase II PoP schizophrenia trial, serum testosterone; type: in vivo, human; settings: schizophrenia patients, 40 mg QD
[3] = Pharmacokinetics in humans (healthy male subjects); type: in vivo, human
Protocol: Pharmacokinetic properties have been investigated in healthy male subjects. […] The elimination half-life for the NK3RA was approximately 7 hours. […] Renal elimination of the NK3RA or its metabolite was negligible. Following multiple dose administration, pharmacokinetic steady state was achieved within 4 days. At steady state, the exposure to the metabolite was approximately 66% of the parent circulated; the accumulation of the NK3RA in the plasma was minimal following QD dosing and was greater following BID dosing.

NK1 = NK1 (Homo sapiens, UniProt P25103); experiment: Specificity over other tachykinin receptors (NK1); type: binding
rats = experiment: Cardiovascular effects in rats; type: in vivo, rat; settings: 46 mg/kg orally (100 μmol/kg), highest dose tested

Chain of hERG channel (Q12809 whole entry): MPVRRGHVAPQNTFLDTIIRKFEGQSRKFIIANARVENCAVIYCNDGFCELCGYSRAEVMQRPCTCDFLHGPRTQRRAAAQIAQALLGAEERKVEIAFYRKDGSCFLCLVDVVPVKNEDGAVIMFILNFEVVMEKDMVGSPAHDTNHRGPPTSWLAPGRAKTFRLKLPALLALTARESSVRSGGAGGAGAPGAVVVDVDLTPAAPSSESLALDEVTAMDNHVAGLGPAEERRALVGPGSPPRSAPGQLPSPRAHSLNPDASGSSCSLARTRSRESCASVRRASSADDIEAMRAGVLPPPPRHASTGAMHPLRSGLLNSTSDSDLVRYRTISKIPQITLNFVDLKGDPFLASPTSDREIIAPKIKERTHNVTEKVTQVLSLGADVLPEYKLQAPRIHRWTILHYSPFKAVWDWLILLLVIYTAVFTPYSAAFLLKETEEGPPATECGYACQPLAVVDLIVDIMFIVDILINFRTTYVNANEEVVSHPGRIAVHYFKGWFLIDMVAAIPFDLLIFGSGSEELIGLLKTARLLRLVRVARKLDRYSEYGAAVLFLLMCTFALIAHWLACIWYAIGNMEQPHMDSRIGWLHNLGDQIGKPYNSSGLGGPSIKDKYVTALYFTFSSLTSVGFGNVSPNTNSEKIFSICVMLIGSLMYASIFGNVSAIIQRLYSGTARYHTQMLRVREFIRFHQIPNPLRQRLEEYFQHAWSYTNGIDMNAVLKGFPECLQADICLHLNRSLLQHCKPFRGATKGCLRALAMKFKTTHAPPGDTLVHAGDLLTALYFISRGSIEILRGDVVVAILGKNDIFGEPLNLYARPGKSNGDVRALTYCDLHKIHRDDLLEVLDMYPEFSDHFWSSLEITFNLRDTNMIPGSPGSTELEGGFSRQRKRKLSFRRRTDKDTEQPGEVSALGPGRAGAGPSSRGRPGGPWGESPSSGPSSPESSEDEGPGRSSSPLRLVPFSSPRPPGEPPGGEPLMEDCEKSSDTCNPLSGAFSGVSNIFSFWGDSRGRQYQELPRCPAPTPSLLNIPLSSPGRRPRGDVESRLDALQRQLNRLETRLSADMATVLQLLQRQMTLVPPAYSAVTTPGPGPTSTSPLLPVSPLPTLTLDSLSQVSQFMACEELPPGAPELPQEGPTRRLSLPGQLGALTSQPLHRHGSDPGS
Chain of NK1 (P25103 whole entry): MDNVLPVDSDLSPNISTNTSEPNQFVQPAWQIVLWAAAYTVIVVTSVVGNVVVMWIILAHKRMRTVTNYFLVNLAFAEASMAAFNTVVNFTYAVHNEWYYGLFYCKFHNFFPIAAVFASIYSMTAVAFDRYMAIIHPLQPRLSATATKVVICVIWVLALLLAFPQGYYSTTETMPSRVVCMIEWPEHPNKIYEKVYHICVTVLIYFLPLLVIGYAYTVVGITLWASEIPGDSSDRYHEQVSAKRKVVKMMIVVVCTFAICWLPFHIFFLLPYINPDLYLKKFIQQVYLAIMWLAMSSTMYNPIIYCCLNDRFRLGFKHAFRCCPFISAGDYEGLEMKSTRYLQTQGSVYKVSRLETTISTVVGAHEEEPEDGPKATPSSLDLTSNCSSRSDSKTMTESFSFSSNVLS

CC[C@H](NC(=O)c1c(NS(C)(=O)=O)c(-c2ccccc2)nc2ccccc12)c1ccccc1 [NK3RA, 3-(methanesulfonamido)-2-phenyl-N-[(1S)-1-phenylpropyl]quinoline-4-carboxamide]
No Adverse Effect Dose Level for fetal minor abnormalities and variants (female rats; female rats): 1000 mg/kg/day
estrus cycles, mating performance and fertility (female rats; rat, in vivo): Disturbed estrus cycles were seen with no adverse effects on mating performance or fertility
accumulation after 28-day repeat dosing regimen [1]: no accumulation or reduction
rate of absorption ([1]; oral administration): more rapidly absorbed
half-life ([1]; plasma, oral, dogs dosed at 1000 mg/kg/day (2180 μmol/kg/day), read-out: T1/2 at the end of dosing): 5.6 to 14.3 h
bioavailability ([1]; plasma, oral, read-out: Bioavailability (F)): ~100%
half-life ([1]; plasma, read-out: elimination half-life (T½) (converted)): 9.5 h
Vd ([1]; plasma, read-out: volume of distribution (Vz)): 0.81 L/kg
clearance ([1]; plasma, low doses, estimated, read-out: Clp): 0.072 L/h/kg
clearance ([2]; plasma, rat, low doses, estimated, read-out: Clp): 0.498 L/h/kg
volume of distribution (Vz) ([2]; rat): 1.6 L/kg
rate of absorption ([2]; rat, oral administration): absorbed at a moderate rate
bioavailability ([2]; rat, plasma, oral, read-out: Bioavailability (F)): ~100%
half-life ([2]; rat, plasma, read-out: elimination half-life (T½) (converted)): 3.2 h
exposure after multiple dosing ([2]; rats): decreased
inhibition at 97 µM (hERG channel; human, 97 μM): 25%
activity at the hERG channel (hERG channel; in vitro): only weakly active
serum testosterone (serum testosterone): reduction in serum testosterone
accumulation in the plasma ([3]; BID dosing (compared with QD)): greater
accumulation in the plasma ([3]; QD dosing): minimal
absorption following oral dosing ([3]; healthy male subjects): quickly absorbed
renal elimination ([3]; healthy male subjects): negligible
time dependence of pharmacokinetics ([3]; human, in vivo): time independent
half-life ([3]; human, plasma, oral, healthy male subjects, read-out: elimination half-life (converted)): ~7 h
time to pharmacokinetic steady state ([3]; multiple dose administration): ≤ 4 days
dose proportionality of AUC and Cmax ([3]; up to approximately 80 mg): dose proportional
specificity for NK3 over NK1 (NK1): greater than 1200 fold
cardiovascular effects (rats): no cardiovascular effects

Source: patent publication US9475773B2, “NK3 receptor antagonist compound (NK3RA) for use in a method for the treatment of polycystic ovary syndrome (PCOS)” (ASTRAZENECA AB, priority 2013, dated 2016)
